Data taken from article PMC6381024, “Probing Anti-inflammatory Properties Independent of NF-κB Through Conformational Constraint of Peptide-Based Interleukin-1 Receptor Biased Ligands” (Frontiers in Chemistry, 2019).

Experiments:
retinal microglia = assay: Retinal microglial activation and density (Iba-1 staining) in the OIR model; format: in vivo; conditions: OIR rat pups, 2 mg/kg/day i.p.; for Effect on microglial activation / morphology: Iba-1 immunohistochemistry
Source text: On P5, litters were transferred to a controlled hyperoxic environment (Biospherix OxyCycler A84XOV) and maintained at 80 ± 1% O2, which is used to induce vaso-obliteration of the retinal vasculature. At this timepoint, the vasculature is immature and particularly susceptible to […] insults resulting in vaso-obliteration, a defining characteristic of the early stage of retinopathies in premature infants (Garner and Ashton, [1971]). Control litters were not exposed to hyperoxia and were kept in standard conditions with room air (21% O2). To control for the effects of hyperoxia on the lactation of the dams, dams of hyperoxic litters were switched with dams of control litters on P8.
In litters exposed to hyperoxia, pups were randomized to receive phosphate-buffered saline (PBS) vehicle, 2 mg/kg/day of peptides 1, 5, or 6 or 3 mg/kg/day of Kineret from P5 to P10. These doses were determined from our previous study (Rivera et al., [2013]) and administered in twice-daily intra-peritoneal injections titrated to 20 μL per injection with 28-gauge insulin syringes. A total of 6–8 pups were used for each treatment group.
Retinas were treated at room temperature for 1 h with a blocking solution consisting of 1% bovine serum albumin (BSA), 1% normal goat serum, 0.1% Triton X-100 and 0.05% Tween-20 in PBS. The retinas were then double-labeled overnight at 4°C with gentle shaking in an antibody solution consisting of 1 mM CaCl2, 1% Triton X-100, 1% TRITC-conjugated lectin cell endothelial marker from Bandeiraea simplicifolia (Sigma-Aldrich, St Louis, MO) and a 1:500 dilution of rabbit anti-ionized calcium-binding adapter molecule (Iba)-1 antibody (Wako Chemicals USA) in PBS. The retinas were then washed thrice with PBS and incubated with a secondary antibody solution consisting of 1% BSA, 0.1% Triton X-100, 0.05% Tween-20 and 1:500 Alexa-594-conjugated donkey anti-rabbit IgG (ThermoFisher Scientific, Rockford, IL) in PBS for 2 h at room temperature. Retinas were washed thrice with PBS and then flat-mounted onto glass slides with coverslips and Fluoro-Gel mounting medium (Electron Microscopy Sciences, Hatfield, PA).
For assessment of vaso-obliteration, retinas were imaged using an epifluorescence microscope at 10X magnification (Zeiss AxioImager Z2) and version 4.8 of the AxioVision software. Images were captured and stitched together using the software's MosaiX feature. Iba-1 staining was assessed with the same microscope at 20X magnification, and a total of 4 fields per retina were imaged halfway between the optic nerve and the edge of the retina.
Representative images of Iba-1 staining were taken using a laser scanning confocal microscope (Olympus IX81 with Fluoview FV1000 Scanhead) with the Fluoview Software at 30X magnification.
The FIJI software was used to the quantify the area of vaso-obliteration in each retina, expressed as a percentage of the area of the whole retina. The number of Iba-1-positive cells was counted using the cell counter plug-in in FIJI, and the average of cell counts in 4 fields per retina was calculated.
Figure 11 The effects of peptides 1, 5, and 6 on retinal microglial activation and density. Retinas were obtained for immunohistochemistry from rat pups treated with the OIR protocol, and incubated with rabbit anti-iba-1 antibody, followed by donkey anti-rabbit antibody conjugated to Alexa 594. (A) Representative confocal images of retinal microglia at 30X magnification: scale bar 100 μm. (B) Epifluorescence microscopy images at 20 × magnification of retinal microglial density quantified using ImageJ: 4 images per retina were taken at a distance halfway between the optic nerve and the peripheral edge of the retina; n = 5–7 for peptide 1, 5, and 6, and Kineret; n = 8–10 for normoxia and vehicle; ^*p < 0.05, ^****p < 0.0001 relative to the vehicle group. Treatment groups that are not labeled with asterisks are statistically non-significant compared to the vehicle group.

[1] = tested on: thymocyte TF-1 proliferation; conditions: ref Jamieson et al., 2009; Boutard et al., 2011; cited from earlier work
Source text: Conformational restriction of natural peptides has been used to identify active geometry and to enhance therapeutic potential by mitigating issues such as low oral availability and poor metabolic stability (Carney et al., [2014]; Rubin and Qvit, [2016]; Lubell, [2017]). Since pioneering studies by Freidinger and Veber, the application of Agl residues has proven effective for constraining the backbone sequence to favor β-turn geometry in various peptides (Freidinger et al., [1980], [1982]; Yu et al., [1988]; Zhang et al., [1996]; Aube, [1999]; Perdih and Kikelj, [2006]; Valle et al., [2009]). I ...

Substance	Effect on microglial activation / morphology (retinal microglia)	Inhibition of IL-1β-induced thymocyte TF-1 proliferation, compared to peptide 1 [1]	Reduction of microglial density (retinal microglia; Iba-1-positive cell counts) [%]
H-D-Arg-D-Tyr-(3R,4S)-Hgl-D-Val-D-Glu-D-Leu-D-Ala-NH2 [[(3R,4S)-Hgl^3]-1]	prevented partially the activation of microglia	–	–
H-D-Arg-D-Tyr-(3S,4R)-Hgl-D-Val-D-Glu-D-Leu-D-Ala-NH2 [[(3S,4R)-Hgl^3]-1]	prevented partially the activation of microglia	–	–
H-D-Arg-D-Tyr-(R)-Agl-D-Val-D-Glu-D-Leu-D-Ala-NH2 [[(3R)-Agl^3]-1]	no appreciable effect on microglial morphology	significantly diminished activity	–
H-D-Arg-D-Tyr-(S)-Agl-D-Val-D-Glu-D-Leu-D-Ala-NH2 [[(3S)-Agl^3]-1]	no appreciable effect on microglial morphology	–	< 20
H-D-Arg-D-Tyr-D-Thr-D-Val-D-Glu-D-Leu-D-Ala-NH2 [Peptide 1]	inactive and ramified	–	–
